Laboratory results from patent US20080220445A1, “Method of Screening Transmembrane Enzyme Inhibitory Substance” (TAKEDA PHARMACEUTICAL COMPANY LIMITED, priority 2004, published 2008).

Columns and labels:
BACE1-501 = target: T1, BACE1-501 (Homo sapiens, UniProt P56817); test: Detection of binding by surface plasmon resonance (Biacore3000); settings: PBS containing 10% DMSO and 0.005% Surfactant P20
T1 construct: Expression of full-length β-secretase protein (BACE1-501) was performed with FreeStyle 293 Expression System; made in house; host or cells: FreeStyle 293-F cells (HEK293)
Text: Biacore3000 (Biacore) was used for analysis by surface plasmon resonance. BACE1-501 and the recombinant human BACE-1 (amino acid residue 1-460) were immobilized to carboxyl groups on CM5 sensorchip (carboxymethylated dextran matrix chip) activated with N-hydrosuccinimide (NHS)/N-ethyl-N′-(3-dimethyl-aminopropyl)-carbodiimide hydrochloride (EDC) in acetate buffer at pH 4.5. BACE1-454 and BACE1-474 were immobilized by the same way in acetate buffer at pH 4.0. The binding of the compound and the enzymes was measured in PBS containing 10% DMSO and 0.005% Surfactant P20. The correction of the difference of Resonance Unit (RU) value among flow cells resulting from the bulk effect was carried out with a correction curve made using the buffers with the DMSO concentration varied from 9% to 11% in the five-graded. As a result, signals showing the binding of each compound to BACE1-501 and BACE1-474 were observed. On the other hand, for BACE1-454 and the recombinant human BACE-1 (amino acid residue 1-460), no signal was observed showing the binding.

[1] = target: T2, BACE1-474 (extracellular domain and transmembrane domain of β-secretase) (Homo sapiens, UniProt P56817); test: Inhibitory action on BACE protein, fluorescence-quenched peptide substrate; format: biochemical; settings: final concentration: 10 μM; 37° C. for 63 hr; pH 5.5; read-out: inhibition rates on BACE1-474
T2 construct: made in house; host or cells: FreeStyle 293-F cells (HEK293)
Method: (§1) To 96 black well plate, 25 μl of 0.05 M acetate buffer (pH 5.5), 10 μl of 250 μM substrate (Nma-Ser-Glu-Val-Lys-Met-Asp-Ala-Glu-Lys(Dnp)-Arg-Arg-NH2; SEQ ID NO: 11), 10 μl of BACE1-474 (0.02 mg/ml) or BACE1-454 (0.01 mg/ml) obtained from the above-mentioned Reference Example 5 or a recombinant human BACE-1 (amino acid residues 1-460, R & D Systems) (0.025 mg/ml) commercially available as an extracellular domain, and 5 μl of each compound in 10% DMSO solution, and as a control, 5 μl of 10% DMSO were added respectively, and allowed to be reacted at 37° C. for 63 hr. After completion of the reaction, the fluorescence intensity (excitation wavelength at 325 nm, measurement wavelength at 460 nm) was measured with Fluoroscan ASCENT.

[2] = target: T3, recombinant human BACE-1 (amino acid residues 1-460, R & D Systems) (Homo sapiens, UniProt P56817); test: as above; format: biochemical; settings: final concentration: 10 μM; 37° C. for 63 hr; pH 5.5
T3 construct: a recombinant human BACE-1 (amino acid residues 1-460, R & D Systems); purchased R & D Systems
Method: as §1

[3] = target: T4, BACE1-454 (extracellular domain of β-secretase) (Homo sapiens, UniProt P56817); test: as above; format: biochemical; settings: final concentration: 10 μM; 37° C. for 63 hr; pH 5.5
T4 construct: made in house; host or cells: FreeStyle 293-F cells (HEK293), culture supernatant
Method: as §1

BACE1-471 = target: T5, BACE1-471 (Homo sapiens, UniProt P56817); test: Inhibitory action on BACE1-471, fluorescence-quenched peptide substrate; format: biochemical; settings: pH 5.5; final concentration: 10 μM; 37° C. for 50 hr; pH5.5; read-out: inhibition rates on BACE1-471
T5 construct: made in house; host or cells: FreeStyle 293-F cells (HEK293)
Method: (§2) To 96 black well plate, 25 μl of 0.05M acetate buffer (pH5.5), 10 μl of 250 μM substrate (Nma-Ser-Glu-Val-Lys-Met-Asp-Ala-Glu-Lys(Dnp)-Arg-Arg-NH2; SEQ ID NO: 11), 10 μl of BACE1-471 (0.05 mg/ml) or BACE1-465 (0.04 mg/ml) obtained from the above-mentioned Reference Example 7, and 5 μl of 0.1 mM Compound A in 10% DMSO solution, and as a control, 5 μl of 10% DMSO were added respectively, and allowed to be reacted at 37° C. for 50 hr for BACE1-471 and for 22 hr for BACE1-465. After completion of the reaction, the fluorescence intensity (excitation wavelength at 325 nm, measurement wavelength at 460 nm) was measured with Fluoroscan ASCENT.

BACE1-465 = target: T6, BACE1-465 (Homo sapiens, UniProt P56817); test: Inhibitory action on BACE1-465, fluorescence-quenched peptide substrate; format: biochemical; settings: final concentration: 10 μM; 37° C. for 22 hr; pH5.5
T6 construct: made in house; host or cells: FreeStyle 293-F cells (HEK293), culture supernatant
Method: as §2

T2 sequence (P56817 with tags, fused parts or gaps): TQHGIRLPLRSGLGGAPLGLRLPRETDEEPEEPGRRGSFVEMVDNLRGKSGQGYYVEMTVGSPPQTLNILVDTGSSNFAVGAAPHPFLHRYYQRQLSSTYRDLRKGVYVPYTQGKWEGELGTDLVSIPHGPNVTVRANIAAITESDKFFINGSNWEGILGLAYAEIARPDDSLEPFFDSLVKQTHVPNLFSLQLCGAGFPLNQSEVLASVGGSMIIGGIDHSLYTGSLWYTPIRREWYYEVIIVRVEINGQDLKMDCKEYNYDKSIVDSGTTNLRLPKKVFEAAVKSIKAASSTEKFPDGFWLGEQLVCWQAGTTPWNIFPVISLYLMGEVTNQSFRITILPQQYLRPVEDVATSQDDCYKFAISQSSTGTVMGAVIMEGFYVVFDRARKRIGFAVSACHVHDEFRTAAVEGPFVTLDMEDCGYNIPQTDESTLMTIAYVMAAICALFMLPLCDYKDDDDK
T5 sequence (P56817 with tags, fused parts or gaps): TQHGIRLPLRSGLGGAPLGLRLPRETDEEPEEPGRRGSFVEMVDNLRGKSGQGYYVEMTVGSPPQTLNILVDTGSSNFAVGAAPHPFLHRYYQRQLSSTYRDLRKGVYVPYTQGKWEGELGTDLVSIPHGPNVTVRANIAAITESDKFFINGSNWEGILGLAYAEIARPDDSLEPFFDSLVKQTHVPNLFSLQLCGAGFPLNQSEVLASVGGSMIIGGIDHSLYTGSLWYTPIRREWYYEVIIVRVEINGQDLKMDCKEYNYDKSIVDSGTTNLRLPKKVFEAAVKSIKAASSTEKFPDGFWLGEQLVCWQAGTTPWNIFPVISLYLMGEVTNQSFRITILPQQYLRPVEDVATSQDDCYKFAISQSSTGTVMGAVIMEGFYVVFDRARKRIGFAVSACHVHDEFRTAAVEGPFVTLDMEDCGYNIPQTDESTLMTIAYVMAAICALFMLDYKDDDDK
T6 sequence (P56817 with tags, fused parts or gaps): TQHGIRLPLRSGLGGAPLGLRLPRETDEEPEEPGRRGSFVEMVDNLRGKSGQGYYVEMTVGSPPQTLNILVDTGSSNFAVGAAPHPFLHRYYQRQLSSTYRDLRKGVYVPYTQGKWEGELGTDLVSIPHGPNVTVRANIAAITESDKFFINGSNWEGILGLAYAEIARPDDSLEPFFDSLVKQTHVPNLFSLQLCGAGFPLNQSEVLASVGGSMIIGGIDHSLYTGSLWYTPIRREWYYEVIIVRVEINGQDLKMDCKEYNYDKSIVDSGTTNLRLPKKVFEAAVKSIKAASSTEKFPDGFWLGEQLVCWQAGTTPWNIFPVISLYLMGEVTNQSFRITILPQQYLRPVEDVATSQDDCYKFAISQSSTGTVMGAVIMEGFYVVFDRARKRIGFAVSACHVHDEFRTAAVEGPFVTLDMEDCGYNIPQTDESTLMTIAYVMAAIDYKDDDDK
T3 sequence (P56817 22-460): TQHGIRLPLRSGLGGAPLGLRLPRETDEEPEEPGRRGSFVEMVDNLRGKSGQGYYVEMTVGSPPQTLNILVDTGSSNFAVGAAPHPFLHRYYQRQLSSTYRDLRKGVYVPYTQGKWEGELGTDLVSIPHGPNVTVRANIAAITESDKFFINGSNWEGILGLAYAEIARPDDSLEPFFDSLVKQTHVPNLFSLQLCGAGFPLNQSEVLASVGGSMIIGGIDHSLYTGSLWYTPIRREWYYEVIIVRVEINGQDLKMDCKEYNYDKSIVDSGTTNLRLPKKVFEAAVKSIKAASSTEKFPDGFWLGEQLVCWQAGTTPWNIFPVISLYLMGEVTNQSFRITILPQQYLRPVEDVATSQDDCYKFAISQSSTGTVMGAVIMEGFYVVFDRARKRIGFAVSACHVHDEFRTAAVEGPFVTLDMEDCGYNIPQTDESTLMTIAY
T4 sequence (P56817 with tags, fused parts or gaps): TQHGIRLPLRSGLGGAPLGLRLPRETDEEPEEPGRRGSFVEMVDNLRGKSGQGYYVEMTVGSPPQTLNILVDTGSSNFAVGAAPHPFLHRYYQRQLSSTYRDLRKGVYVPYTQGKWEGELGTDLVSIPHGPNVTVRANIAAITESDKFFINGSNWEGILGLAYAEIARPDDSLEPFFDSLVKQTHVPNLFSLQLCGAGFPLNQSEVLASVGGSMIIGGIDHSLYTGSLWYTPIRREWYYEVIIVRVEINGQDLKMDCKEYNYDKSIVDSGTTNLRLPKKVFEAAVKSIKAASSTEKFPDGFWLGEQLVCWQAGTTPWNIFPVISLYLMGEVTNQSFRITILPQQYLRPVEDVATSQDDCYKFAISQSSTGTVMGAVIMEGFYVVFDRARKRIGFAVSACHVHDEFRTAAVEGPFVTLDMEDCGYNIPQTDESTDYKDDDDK
T1 sequence (P56817 with tags, fused parts or gaps): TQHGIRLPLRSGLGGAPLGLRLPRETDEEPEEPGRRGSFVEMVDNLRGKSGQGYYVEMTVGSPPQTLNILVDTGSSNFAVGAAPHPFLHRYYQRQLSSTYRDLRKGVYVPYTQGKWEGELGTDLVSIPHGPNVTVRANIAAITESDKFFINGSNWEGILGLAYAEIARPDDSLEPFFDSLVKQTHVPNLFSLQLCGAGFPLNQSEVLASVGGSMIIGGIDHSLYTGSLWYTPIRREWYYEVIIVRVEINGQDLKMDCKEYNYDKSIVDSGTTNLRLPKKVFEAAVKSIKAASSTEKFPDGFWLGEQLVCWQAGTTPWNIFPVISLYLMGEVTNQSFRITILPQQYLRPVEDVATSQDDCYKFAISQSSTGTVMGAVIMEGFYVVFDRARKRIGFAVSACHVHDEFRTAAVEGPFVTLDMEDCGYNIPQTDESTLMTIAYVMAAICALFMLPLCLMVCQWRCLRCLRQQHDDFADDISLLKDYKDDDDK

SPR signal showing the binding to BACE1-501 (BACE1-501)	inhibition at 10 µM [1] [%]	inhibitory activity on the recombinant human BACE-1 [2]	inhibitory activity on BACE1-454 [3]	inhibition at 10 µM (BACE1-471) [%]	inhibitory activity on BACE1-465 (BACE1-465)	SMILES
	30	no inhibitory activity	no inhibitory activity	29	no inhibitory activity	CN(C)CC[C@@H]1CCc2cc(OCc3ccc(-c4ccccc4)cc3)ccc2C1 [Compound A]
	37	no inhibitory activity	no inhibitory activity	70	no inhibitory activity	NCCC1CCc2cc(OCc3ccc(-c4ccccc4)cc3)ccc2C1 (centres unmarked) [Compound I]

Continued, molecule first:

SMILES	SPR signal showing the binding to BACE1-501 (BACE1-501)	inhibition at 10 µM [1] [%]	inhibitory activity on the recombinant human BACE-1 [2]	inhibitory activity on BACE1-454 [3]	inhibition at 10 µM (BACE1-471) [%]	inhibitory activity on BACE1-465 (BACE1-465)
Cc1ccc(-c2ccc(COc3ccc4c(c3)CC[C@@H](CCN(C)C)C4)cc2)cc1 [Compound J]	binding	37	no inhibitory activity	no inhibitory activity	48	no inhibitory activity
C[N+](C)([O-])CC[C@@H]1CCc2cc(OCc3ccc(-c4ccccc4)cc3)ccc2C1 [Compound H]		34	no inhibitory activity	no inhibitory activity	31	no inhibitory activity
CCN(CC)CCC1CCc2cc(OCc3ccc(-c4ccccc4)cc3)ccc2C1 (centres unmarked) [Compound D]		38	no inhibitory activity	no inhibitory activity	42	no inhibitory activity
